This is an account of results in patent US8637510B2, “Morpholinothiazoles as alpha 7 positive allosteric modulators” (Janssen Pharmaceutica NV, priority 2009, dated 2014).

The structures appear in SMILES notation.

One series concerns the target T1, human alpha 7-wt nAChR (Homo sapiens, UniProt P36544).
T1 construct: expressed in transfected cells
In words: Ca2+ flux imaging (FDSS) (Protocol B). The series is classed as cell-based. As to conditions: for Emax: efficacy of 100 μM choline defined as 100% in the absence of a PAM, read-out: a7-PAM-G_[33]_Eff_Curve_FI % Efficacy; for EC50: potentiation of 100 μM choline, compounds 0.01 μM to 30 μM, read-out: a7-PAM-G_[33]_pEC50 pEC50 (converted). An outline of the steps:
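PAM activity was measured as FDSS calcium fluorescence in α7-wt nAChR cells loaded with 2 μM Fluo-4AM, with compounds at 0.01–30 μM added alongside or 10 min ahead of sub-maximal 100 μM choline. Peak responses were normalised to choline-only efficacy, and EC50 was taken at half-maximal effect.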

T1 sequence (P36544 23-502): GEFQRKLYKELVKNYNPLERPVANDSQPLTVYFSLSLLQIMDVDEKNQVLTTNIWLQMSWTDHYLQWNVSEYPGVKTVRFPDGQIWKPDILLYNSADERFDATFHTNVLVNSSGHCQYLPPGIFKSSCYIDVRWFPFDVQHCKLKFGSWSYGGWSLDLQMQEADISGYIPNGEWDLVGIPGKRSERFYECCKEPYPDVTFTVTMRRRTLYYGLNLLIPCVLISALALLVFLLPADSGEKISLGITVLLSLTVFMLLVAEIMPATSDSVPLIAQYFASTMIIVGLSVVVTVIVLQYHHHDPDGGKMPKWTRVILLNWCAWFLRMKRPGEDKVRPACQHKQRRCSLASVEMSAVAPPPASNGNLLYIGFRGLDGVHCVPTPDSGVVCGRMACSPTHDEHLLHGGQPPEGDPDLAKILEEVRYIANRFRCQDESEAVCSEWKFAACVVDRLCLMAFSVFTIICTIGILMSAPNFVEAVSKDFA

One may read the melting point as the temperature of the solid-liquid transition. As for `Cc1cc(-c2sc(N3C[C@@H](C)O[C@@H](C)C3)nc2CNC(=O)c2ccc3c(c2)OC(F)(F)O3)cc(C)n1` [Compound 45, N-[[2-[(2R,6S)-2,6-dimethyl-4-morpholinyl]-5-(2,6-dimethyl-4-pyridinyl)-4-thiazolyl]methyl]-2,2-difluoro-1,3-benzodioxole-5-carboxamide], the melting point worked out at 175 °C. Further, at human alpha 7-wt nAChR, the Emax is 566% and the EC50 was 355 nM.

`Cc1cc(-c2sc(N3C[C@@H](C)O[C@@H](C)C3)nc2CNC(=O)c2c(C)noc2C(F)(F)F)cc(C)n1` [Compound 163, N-[[2-[(2R,6S)-2,6-dimethyl-4-morpholinyl]-5-(2,6-dimethyl-4-pyridinyl)-4-thiazolyl]methyl]-3-methyl-5-(trifluoromethyl)-4-isoxazolecarboxamide] displayed a melting point of 176 °C. At human alpha 7-wt nAChR, the Emax stood at 142%.

The compound `O=C(NCc1nc(N2CCOCC2)sc1-c1ccncc1)C1CC1` [Compound 116, N-[[2-(4-morpholinyl)-5-(4-pyridinyl)-4-thiazolyl]methyl]-cyclopropanecarboxamide] returned a melting point of 189 °C. For the same compound, the Emax on human alpha 7-wt nAChR was found to be 259%.

The compound `Cc1cc(-c2sc(N3CCOC(C)C3)nc2CNC(=O)c2ccc(F)cc2C)cc(C)n1` (single isomer, unassigned) [Compound 77, N-[[5-(2,6-dimethyl-4-pyridinyl)-2-[(2R*)-2-methyl-4-morpholinyl]-4-thiazolyl]methyl]-4-fluoro-2-methyl-benzamide] returned a melting point of 188 °C. In addition, on human alpha 7-wt nAChR, the Emax was determined as 809% and the EC50 was 107 nM.

For the compound `CCCC(=O)NCc1nc(N2C[C@@H](C)O[C@@H](C)C2)sc1-c1cc(C)nc(C)c1` [Compound 41, N-[[2-[(2R,6S)-2,6-dimethyl-4-morpholinyl]-5-(2,6-dimethyl-4-pyridinyl)-4-thiazolyl]methyl]-butanamide], the melting point is 155 °C. For the same compound, on human alpha 7-wt nAChR, the Emax worked out at 657% and the EC50 was 102 nM.

The compound `Cc1ccc(-c2sc(N3C[C@@H](C)O[C@@H](C)C3)nc2CNC(=O)c2ccc(F)cc2)cn1` [Compound 126, N-[[2-[(2R,6S)-2,6-dimethyl-4-morpholinyl]-5-(6-methyl-3-pyridinyl)-4-thiazolyl]methyl]-4-fluoro-benzamide] had a melting point of 195 °C. For the same compound, at human alpha 7-wt nAChR, the Emax stood at 655% and the EC50 was 1660 nM.

In turn, `Cc1cc(-c2sc(N3C[C@@H](C)O[C@@H](C)C3)nc2CNC(=O)c2ccno2)cc(C)n1` [Compound 149, N-[[2-[(2R,6S)-2,6-dimethyl-4-morpholinyl]-5-(2,6-dimethyl-4-pyridinyl)-4-thiazolyl]methyl]-5-isoxazolecarboxamide] had a melting point of 164 °C. For the same compound, on human alpha 7-wt nAChR, the EC50 was 1620 nM.

`Cc1ccc(-c2sc(N3C[C@@H](C)O[C@@H](C)C3)nc2CNC(=O)CC2CC2)cn1` [Compound 119, N-[[2-[(2R,6S)-2,6-dimethyl-4-morpholinyl]-5-(6-methyl-3-pyridinyl)-4-thiazolyl]methyl]-cyclopropaneacetamide] registered a melting point of 139 °C. For the same compound, at human alpha 7-wt nAChR, the Emax was determined as 302% and the EC50 is 4270 nM.

Take `Cc1cc(-c2sc(N3C[C@@H](C)O[C@@H](C)C3)nc2CNC(=O)c2ccc(F)c(F)c2)cc(C)n1` [Compound 36, N-[[2-[(2R,6S)-2,6-dimethyl-4-morpholinyl]-5-(2,6-dimethyl-4-pyridinyl)-4-thiazolyl]methyl]-3,4-difluoro-benzamide]: the melting point was determined as 189 °C. In addition, at human alpha 7-wt nAChR, the Emax was determined as 869% and the EC50 was 74.1 nM.

Turning to `CC(C)CC(=O)NCc1nc(N2C[C@@H](C)O[C@@H](C)C2)sc1-c1ccncc1` [Compound 103, N-[[2-[(2R,6S)-2,6-dimethyl-4-morpholinyl]-5-(4-pyridinyl)-4-thiazolyl]methyl]-3-methyl-butanamide], the melting point was 173 °C. Further, the EC50 on human alpha 7-wt nAChR is 1290 nM.

Take `Cc1cc(F)ccc1C(=O)NCc1nc(N2C[C@@H](C)O[C@@H](C)C2)sc1-c1ccncc1` [Compound 102, N-[[2-[(2R,6S)-2,6-dimethyl-4-morpholinyl]-5-(4-pyridinyl)-4-thiazolyl]methyl]-4-fluoro-2-methyl-benzamide]: the melting point worked out at 161 °C. On human alpha 7-wt nAChR, the Emax stood at 982% and the EC50 is 347 nM.

For the compound `Cc1ccc(-c2sc(N3C[C@@H](C)O[C@@H](C)C3)nc2CNC(=O)c2conc2C)cn1` [Compound 117, N-[[2-[(2R,6S)-2,6-dimethyl-4-morpholinyl]-5-(6-methyl-3-pyridinyl)-4-thiazolyl]methyl]-3-methyl-4-isoxazolecarboxamide], the melting point was found to be 129 °C. The Emax on human alpha 7-wt nAChR is 665%.

`Cc1cc(-c2sc(N3C[C@@H](C)O[C@@H](C)C3)nc2CNC(=O)CC2CCC2)cc(C)n1` [Compound 49, N-[[2-[(2R,6S)-2,6-dimethyl-4-morpholinyl]-5-(2,6-dimethyl-4-pyridinyl)-4-thiazolyl]methyl]-cyclobutaneacetamide] displayed a melting point of 153 °C. The EC50 at human alpha 7-wt nAChR is 26.3 nM.

In the case of `Cc1cc(-c2sc(N3C[C@@H](C)O[C@@H](C)C3)nc2CNC(=O)C2C(C)(C)C2(C)C)cc(C)n1` [Compound 43, N-[[2-[(2R,6S)-2,6-dimethyl-4-morpholinyl]-5-(2,6-dimethyl-4-pyridinyl)-4-thiazolyl]methyl]-2,2,3,3-tetramethyl-cyclopropanecarboxamide], the melting point stood at 197 °C. Besides, at human alpha 7-wt nAChR, the Emax was determined as 663% and the EC50 was 60.3 nM.

In the case of `Cc1cc(C(=O)NCc2nc(N3C[C@@H](C)O[C@@H](C)C3)sc2-c2ccnc(C(F)(F)F)c2)no1` [Compound 199, N-[[2-[(2R,6S)-2,6-dimethyl-4-morpholinyl]-5-[2-(trifluoromethyl)-4-pyridinyl]-4-thiazolyl]methyl]-5-methyl-3-isoxazolecarboxamide], the melting point turned out to be 228 °C. Also, the EC50 on human alpha 7-wt nAChR was 219 nM.

Compound `Cc1cc(-c2sc(N3C[C@@H](C)O[C@@H](C)C3)nc2CNC(=O)c2ncoc2C)cc(C)n1` [Compound 161, N-[[2-[(2R,6S)-2,6-dimethyl-4-morpholinyl]-5-(2,6-dimethyl-4-pyridinyl)-4-thiazolyl]methyl]-5-methyl-4-oxazolecarboxamide] displayed a melting point of 201 °C. On human alpha 7-wt nAChR, the Emax was found to be 509% and the EC50 is 5130 nM.

Regarding `CCCC(=O)NCc1nc(N2CCOCC2)sc1-c1cc(C)nc(C)c1` [Compound 67, N-[[5-(2,6-dimethyl-4-pyridinyl)-2-(4-morpholinyl)-4-thiazolyl]methyl]-butanamide], the melting point was 178 °C. In addition, on human alpha 7-wt nAChR, the Emax came to 959% and the EC50 was 5370 nM.

`Cc1cc(-c2sc(N3CC(C)OC(C)C3)nc2CNC(=O)c2cc(C)on2)cc(C)n1` (racemic) [Compound 59, N-[[2-[2,6-dimethyl-4-morpholinyl]-5-(2,6-dimethyl-4-pyridinyl)-4-thiazolyl]methyl]-5-methyl-3-isoxazolecarboxamide]: the melting point is 166 °C. In addition, at human alpha 7-wt nAChR, the Emax stood at 938% and the EC50 is 1620 nM.

As to `Cc1cc(-c2sc(N3CCOC(C)C3)nc2CNC(=O)c2cc(C)on2)cc(C)n1` (single isomer, unassigned) [Compound 74, N-[[5-(2,6-dimethyl-4-pyridinyl)-2-[(2R*)-2-methyl-4-morpholinyl]-4-thiazolyl]methyl]-5-methyl-3-isoxazolecarboxamide], the melting point was 167 °C. The EC50 on human alpha 7-wt nAChR was 2000 nM.

`Cc1cc(-c2sc(N3C[C@@H](C)O[C@@H](C)C3)nc2CNC(=O)c2cccc3c2OC(F)(F)O3)cc(C)n1` [Compound 46, N-[[2-[(2R,6S)-2,6-dimethyl-4-morpholinyl]-5-(2,6-dimethyl-4-pyridinyl)-4-thiazolyl]methyl]-2,2-difluoro-1,3-benzodioxole-4-carboxamide] registered a melting point of 185 °C. Moreover, on human alpha 7-wt nAChR, the Emax turned out to be 610% and the EC50 is 331 nM.

Turning to `Cc1cc(-c2sc(N3C[C@@H](C)O[C@@H](C)C3)nc2CNC(=O)c2cc(C)oc2C)cc(C)n1` [Compound 146, N-[[2-[(2R,6S)-2,6-dimethyl-4-morpholinyl]-5-(2,6-dimethyl-4-pyridinyl)-4-thiazolyl]methyl]-2,5-dimethyl-3-furancarboxamide], the melting point was found to be 131 °C. Further, the EC50 on human alpha 7-wt nAChR is 977 nM.

With `Cc1ccc(-c2sc(N3C[C@@H](C)O[C@@H](C)C3)nc2CNC(=O)c2cccc(F)c2)cn1` [Compound 125, N-[[2-[(2R,6S)-2,6-dimethyl-4-morpholinyl]-5-(6-methyl-3-pyridinyl)-4-thiazolyl]methyl]-3-fluoro-benzamide], the melting point is 147 °C. On human alpha 7-wt nAChR, the Emax came out at 428% and the EC50 is 851 nM.

Take `Cc1cc(-c2sc(N3CCOC(C)C3)nc2CNC(=O)c2cc(C)on2)cc(C)n1` (single isomer, unassigned) [Compound 79, N-[[5-(2,6-dimethyl-4-pyridinyl)-2-[(2S*)-2-methyl-4-morpholinyl)-4-thiazolyl]methyl]-5-methyl-3-isoxazolecarboxamide]: the melting point came to 166 °C. Moreover, at human alpha 7-wt nAChR, the EC50 was 1660 nM.

In turn, `Cc1cc(-c2sc(N3CCOCC3)nc2CNC(=O)c2cc(C)on2)cc(C)n1` [Compound 63, N-[[5-(2,6-dimethyl-4-pyridinyl)-2-(4-morpholinyl)-4-thiazolyl]methyl]-5-methyl-3-isoxazolecarboxamide] showed a melting point of 197 °C. In addition, on human alpha 7-wt nAChR, the Emax is 969% and the EC50 is 1820 nM.
